Laboratory results as given in patent US20060074243A1, “Hydroxamic acid and amide compounds and their use as protease inhibitors” (Pharmacia Corporation, priority 2002, published 2006).

Legend:
Human recombinant MMP-9 = biological target: T1, Human recombinant MMP-9 (Homo sapiens, UniProt P14780); experiment: In vitro MMP inhibition analysis (fluorogenic peptide substrate cleavage), Ki; type: biochemical; conditions: Table 1
T1 construct: made in house; host or cells: MMP-9-transfected HT1080 cells (spent media)
T1 sequence (P14780 107-707 limits assumed): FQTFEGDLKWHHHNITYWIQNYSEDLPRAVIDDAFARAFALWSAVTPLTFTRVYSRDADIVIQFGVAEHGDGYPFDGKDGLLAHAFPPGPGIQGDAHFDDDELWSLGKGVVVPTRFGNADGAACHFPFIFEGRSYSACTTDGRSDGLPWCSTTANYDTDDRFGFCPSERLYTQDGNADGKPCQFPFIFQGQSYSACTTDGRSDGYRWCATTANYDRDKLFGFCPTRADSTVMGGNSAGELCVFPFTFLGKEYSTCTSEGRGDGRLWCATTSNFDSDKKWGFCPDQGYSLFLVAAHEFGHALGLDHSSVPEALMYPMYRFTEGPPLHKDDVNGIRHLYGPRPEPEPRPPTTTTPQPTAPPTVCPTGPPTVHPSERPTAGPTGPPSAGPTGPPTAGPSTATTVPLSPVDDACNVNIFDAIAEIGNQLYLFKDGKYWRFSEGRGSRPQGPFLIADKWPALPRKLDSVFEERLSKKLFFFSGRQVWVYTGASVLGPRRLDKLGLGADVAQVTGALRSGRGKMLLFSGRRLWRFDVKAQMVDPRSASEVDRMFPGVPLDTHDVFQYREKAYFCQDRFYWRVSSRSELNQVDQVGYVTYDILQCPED
Protocol: (§1) Several compounds and salts were analyzed in an in vitro assay to determine their ability to inhibit the MMP cleavage of peptide substrates. Inhibition constant (Ki) were calculated from the assayed compound-MMP interactions.
(§2) Human recombinant MMP-1, MMP-2, MMP-9, MMP-13, and MMP-14 were used in this assay. All enzymes were prepared in Assignee's laboratories following usual laboratory procedures. Protocols for the preparation and use of these enzymes are available in the scientific literature. See, e.g., Enzyme Nomenclature (Academic Press, San Diego, Calif., 1992) (and the citations therein). See also, Frije et al., J. Biol. Chem., 26(24), 16766-73 (1994).
The MMP-9 proenzyme was purified by gelatin Sepharose chromatography from spent media of MMP-9-transfected HT1080 cells provided by Dr. Howard Welgus of Washington University (St. Louis, Mo.).
(§3) All MMPs were activated using 4-aminophenylmercuric acetate (“APMA”, Sigma Chemical, St. Louis, Mo.) or trypsin. MMP-9 also was activated using human recombinant MMP-3 (purified in Assignee's laboratory following standard cloning and purification techniques).
(§4) The following fluorogenic, methoxycoumarin-containing polypeptide substrate (I) was used in the MMP inhibition assays: MCA-ArgProLeuGlyLeuDpaAlaArgGluArgNH2 (I) “MCA” is 7-methoxycoumarin-4-yl acetyl. Substrate (I) was prepared Assignee's laboratory. In the absence of MMP inhibitory activity, the substrate is cleaved at the Gly-Leu peptide bond. This cleavage separates the highly fluorogenic peptide from the 2,4-dinitrophenyl quencher, thus resulting in increase of fluorescent intensity.
(§5) The stock solutions of the assayed compounds and salts were prepared in […] (DMSO). These stock solutions were diluted in Buffer A (100 mM Tris-HCl, 100 mM NaCl, 10 mM CaCl2, 0.05% polyoxyethylene 23 lauryl ether, pH 7.5) to obtain solutions with different compound concentrations, i.e., assay solutions with different concentrations of the assayed […] compound. The experiment controls contained the same amount of Buffer A/DMSO as the assayed sample, but contained none of the tested compound or salt.
(§6) The assays from which the Ki determinations were made were performed as follows. The assayed compound samples were incubated in separate wells of untreated white polystyrene plates (Nunc Nalgene International, Rochester, N.Y.), and analyzed on a Tecan SpectraFlour Plus plate reader. The excitation wavelength was 330 nm, and the emission wavelength—420 nm. All samples (assayed compounds and controls) were incubated in separate plate wells at room temperature for 1 hr in the presence of 4 μM of MMP substrate (I). In the absence of MMP inhibitory activity, substrate (I) was cleaved at the Gly-Leu bond resulting in an increase of relative fluorescence. Inhibition was observed as a reduced rate of this increase in relative fluorescence. […] This protocol is a modification of method by Knight et al., FEBS Lett., 296(3), 263-266 (1992). Apparent inhibitory constants were determined by non-linear regression of reaction velocity as a function of inhibitor and enzyme concentration using Morrison's equation, as described by Kuzmic, Anal. Biochem. 286, 45-50 (2000). Modifications were made in the non-linear regression method to allow a common control reaction rate and effective enzyme concentration to be shared between all dose-response relationships on a given assay plate. Since the substrate concentration was chosen to be at or below the Km, the apparent Ki's from this analysis were reported as Ki's without correction for the influence of substrate.
The above protocols were used to determine Ki constants for the compounds in Examples 2-35 above. All Ki values in Table 1 are given in nM units.

Human recombinant MMP-13 = biological target: T2, Human recombinant MMP-13 (Homo sapiens, UniProt P45452); experiment: as above; type: biochemical; conditions: Table 1
T2 construct: made in house; host or cells: baculovirus / insect cells
Protocol: as §1, §2
The MMP-13 was obtained as a proenzyme from a full-length cDNA clone using baculovirus, as described by V. A. Luckow, “Insect Cell Expression Technology,” Protein Engineering: Principles and Practice, pp. 183-218 (edited by J. L. Cleland et al., Wiley-Liss, Inc., 1996). The expressed proenzyme was first purified over a heparin agarose column, and then over a chelating zinc chloride column. The proenzyme was then activated by APMA for use in the assay. Further details on baculovirus expression systems may be found in, for example, Luckow et al., J. Virol., 67, 4566-79 (1993). See also, O'Reilly et al, Baculovirus Expression Vectors: A Laboratory Manual (W.H. Freeman and Co., New York, N.Y., 1992). See also, King et al., The Baculovirus Expression System: A Laboratory Guide (Chapman & Hall, London, England, 1992).
as §3, §4, §5
as §6, with “Modifications were made in the non-linear regression method to allow a common control reaction rate and effective enzyme concentration to be shared between all dose-response relationships on a given assay plate. Since the substrate concentration was chosen to be at or below the Km, the apparent Ki's from this analysis were reported as Ki's without correction for the influence of substrate.” left out

Ki (Human recombinant MMP-9): 0.31 nM
Ki (Human recombinant MMP-13): 0.23 nM
Structure (SMILES): CC(F)(F)CCc1cnc(-c2ccc(S(=O)(=O)C3(C(=O)NO)CCN(C4CC4)CC3)cc2)cn1 [Example 66]
